Assay results from patent US20230150951A1, “2,5- OR 2,6-DISUBSTITUTED HYDROQUINONE DERIVATIVES WITH AT LEAST ONE CARBOXY, SULFO OR AMIDO GROUP USEFUL AS MEDICAMENTS” (OM PHARMA SA, priority 2020, published 2023).
Read-outs that look alike come from different tables or passages of the source.

Experiments:
Assay type in all cases: cell-based
IL-21 = assay: Cytokine release after LPS induction on human whole blood: IL-21
Protocol: (§1) Aim of this in vitro method is to assess compounds effects on release of a panel of cytokines from whole blood following lipopolysaccharide (LPS) induced inflammatory reaction. Whole blood was incubated with compounds for 1 h prior to LPS induction. Cytokine levels in blood were measured using a multiplex FACS-based panel.
(§2) IC50 values determined for the tested compounds expressed in microM [μM] and the values for the inhibition of cytokines were listed for each compound.
(§3) Effect on cytokines release after LPS induction was performed on the compounds dissolved in DMSO or H2O to reach 10-fold concentrated stock solutions and dissolved in culture media.
(§4) Test system: Whole blood was removed from a single donor (into lithium heparin coated tubes; BD Vacutainer; 367886) and diluted 1:5 with RPMI 1640 (Thermo Fisher, 61870036). Within 30 minutes of sampling, blood was incubated with compounds for 1 h prior to LPS stimulation (O111:B4—Sigma L4391; 10 ng/ml final concentration). Stimulation continued under standard cell culture conditions (37° C. with 5% CO2) overnight (18 h), after which plates were centrifuged and supernatant removed and frozen at −80° C. until used for analyses.
(§5) Dilution of test compounds: 10×concentrated solutions (concerning to the final assay concentrations) of each test compound were prepared with the appropriate solvent (in DMSO or in water). These 10× compound solutions (10 μl) were then added to 90 μl pre-diluted whole blood (whole blood: RPMI1640, 1:5) resulting in the final assay concentration.
(§6) Test method: Diluted whole blood (80 μl) was pre-incubated with compounds (10 μl) to give final assay concentrations of 100, 30, 10, 3, 1, 0.3 and 0.1×10^−6M. Blood was incubated at 37° C. with 5% CO2 for 1 h. LPS was diluted in cell culture media to a concentration of […]; 10 μl was added to the whole blood to give a final concentration of 10 ng/ml. Plates were incubated at 37° C. for 18 h. Plates were centrifuged at 3,000 RPM for 5 minutes at 4° C. and supernatant removed and frozen at −80° C. until FACS analysis was carried out.
(§7) Cytokine release was measured using a custom multiplex system (ELISA Genie) according to manufacturers instructions. Prepared samples were run on an Attune NxT flow cytometer (Thermo Fisher).
(§8) Quantification of cytokine release inhibition: known concentration standards were run as part of the cytokine panel to allow quantification of each cytokine concentration in each sample. This was carried out using FCAP Array v3.0 software.
(§9) Results: The dose response relationship on cytokine release following LPS induction of inflammatory response in whole blood was assessed for all compounds. IC50 values were determined for each compound for a panel of cytokines (GM-CSF, IFN-gamma, IL-1beta, IL-2, IL-4, IL-5, IL-6, IL-8, IL-9, IL-10, IL-12p40, IL-13, IL-17A, IL-17F, IL-18, IL-21, IL-22, IL-33, TGF-beta, TNF-alpha, TNF-beta).

IL-2 = assay: Cytokine release after LPS induction on human whole blood: IL-2
Protocol: as §1, §2, §3, §4, §5, §6, §7, §8, §9

IL-6 = assay: Cytokine release after LPS induction on human whole blood: IL-6
Protocol: as §1, §2, §3, §4, §5, §6, §7, §8, §9

IL-9 = assay: Cytokine release after LPS induction on human whole blood: IL-9
Protocol: as §1, §2, §3, §4, §5, §6, §7, §8, §9

[1] = Homo sapiens, LPS 10 ng/ml, 18 h, read-out: Whole Blood: IL-21 IC50
[2] = human whole blood, inhibition of LPS induced inflammation, read-out: IC50 IL-21
[3] = Homo sapiens, LPS 10 ng/ml, 18 h, read-out: Whole Blood: IL-2 IC50
[4] = human whole blood, inhibition of LPS induced inflammation, read-out: IC50 IL-2
[5] = Homo sapiens, LPS 10 ng/ml, 18 h, read-out: Whole Blood: IL-6 IC50
[6] = human whole blood, inhibition of LPS induced inflammation, read-out: IC50 IL-6
[7] = Homo sapiens, LPS 10 ng/ml, 18 h, read-out: Whole Blood: IL-9 IC50
[8] = human whole blood, inhibition of LPS induced inflammation, read-out: IC50 IL-9

Structure (SMILES) | IC50 (IL-21; [1]) | IC50 (IL-21; [2]) | IC50 (IL-2; [3]) | IC50 (IL-2; [4]) | IC50 (IL-6; [5]) | IC50 (IL-6; [6]) | IC50 (IL-9; [7]) | IC50 (IL-9; [8]) | IC50 (IL-21; Homo sapiens, 18 h, read-out: Whole Blood: IL-21 IC50) | IC50 (IL-21; Homo sapiens, read-out: IC50 IL-21) | IC50 (IL-2; Homo sapiens, 18 h, read-out: Whole Blood: IL-2 IC50) | IC50 (IL-2; Homo sapiens, read-out: IC50 IL-2) | IC50 (IL-6; Homo sapiens, 18 h, read-out: Whole Blood: IL-6 IC50) | IC50 (IL-6; Homo sapiens, read-out: IC50 IL-6) | IC50 (IL-9; Homo sapiens, 18 h, read-out: Whole Blood: IL-9 IC50) | IC50 (IL-9; Homo sapiens, read-out: IC50 IL-9)
O=C(O)c1cc(NC(=O)c2cc(O)c(C(=O)Nc3ccc(O)c(C(=O)O)c3)cc2O)ccc1O [Ic-007a, 5-(4-(3-carboxy-4-hydroxyphenylaminocarbonyl)-2,5-dihydroxybenzamido)-2-hydroxy benzoic acid] | 1.9 µM | 1.9 µM | > 100 µM | 100 µM | 0.09 µM | 0.09 µM | 27.1 µM | 27.1 µM | – | – | – | – | – | – | – | –
O=C(Nc1ccccc1-c1nnn[nH]1)c1cc(O)c(C(=O)Nc2ccccc2-c2nnn[nH]2)cc1O [Ic-001aTz2, N1,N4-bis(2-(1H-tetrazol-5-yl)phenyl)-2,5-dihydroxyterephthalamide] | 32 µM | – | 9.45 µM | – | 0.52 µM | – | 9.13 µM | – | – | – | – | – | – | – | – | –
O=C(O)c1cc(O)c(C(=O)Nc2ccc(-c3nnn[nH]3)cc2)cc1O [Ia-003a-Tz, 4-(4-(1H-tetrazol-5-yl)phenyl-aminocarbonyl)-2,5-dihydroxybenzoic acid] | 1.49 µM | 1.49 µM | 43 µM | 43 µM | 1.41 µM | 1.41 µM | 3.62 µM | 3.62 µM | – | – | – | – | – | – | – | –
O=C(O)c1cc(NC(=O)c2cc(O)c(C(=O)Nc3ccccc3-c3nnn[nH]3)cc2O)ccc1O [Ic-001a-Tz/004a, 5-(4-(2-(1H-tetrazol-5-yl)phenylaminocarbonyl)-2,5-dihydroxybenzamido)-2-hydroxy benzoic acid] | – | – | – | – | – | – | – | – | 0.3 µM | 0.3 µM | 4.91 µM | 4.91 µM | 3.04 µM | 3.04 µM | 8.48 µM | 8.48 µM
O=C(O)c1cc(NC(=O)c2cc(O)cc(C(=O)Nc3ccc(O)c(C(=O)O)c3)c2O)ccc1O [IIc-007a, 5-(3-(3-carboxy-4-hydroxyphenylaminocarbonyl)-2,5-dihydroxybenzamido)-2-hydroxy benzoic acid] | 9.41 µM | 9.41 µM | 12.8 µM | 12.8 µM | 0.05 µM | 0.05 µM | 2.14 µM | 2.14 µM | – | – | – | – | – | – | – | –
O=C(O)c1cc(O)c(C(=O)Nc2ccccc2-c2nnn[nH]2)cc1O [Ia-001a-Tz, 4-(2-(1H-tetrazol-5-yl)phenyl-aminocarbonyl)-2,5-dihydroxybenzoic acid] | > 100 µM | 100 µM | 7.99 µM | 7.99 µM | 0.75 µM | 0.75 µM | 8.63 µM | 8.63 µM | – | – | – | – | – | – | – | –
O=C(O)Cc1cc(O)c(C(=O)Nc2ccccc2-c2nnn[nH]2)cc1O [IIIa-001aTz] | 3 µM | 3 µM | > 100 µM | 100 µM | 1.98 µM | 1.98 µM | 3.01 µM | 3.01 µM | – | – | – | – | – | – | – | –
O=C(O)c1cc(O)c(C(=O)Nc2ccccc2C(=O)O)cc1O [Ia-001a, 4-(2-carboxyphenylaminocarbonyl)-2,5-dihydroxybenzoic acid] | > 100 µM | 100 µM | 94.3 µM | 94.3 µM | 1.24 µM | 1.24 µM | 5.63 µM | 5.63 µM | – | – | – | – | – | – | – | –

Continued, in another order:

IC50 (IL-21; [1]) | IC50 (IL-21; [2]) | IC50 (IL-2; [3]) | IC50 (IL-2; [4]) | IC50 (IL-6; [5]) | IC50 (IL-6; [6]) | IC50 (IL-9; [7]) | IC50 (IL-9; [8]) | Structure (SMILES) | IC50 (IL-21; Homo sapiens, 18 h, read-out: Whole Blood: IL-21 IC50) | IC50 (IL-21; Homo sapiens, read-out: IC50 IL-21) | IC50 (IL-2; Homo sapiens, 18 h, read-out: Whole Blood: IL-2 IC50) | IC50 (IL-2; Homo sapiens, read-out: IC50 IL-2) | IC50 (IL-6; Homo sapiens, 18 h, read-out: Whole Blood: IL-6 IC50) | IC50 (IL-6; Homo sapiens, read-out: IC50 IL-6) | IC50 (IL-9; Homo sapiens, 18 h, read-out: Whole Blood: IL-9 IC50) | IC50 (IL-9; Homo sapiens, read-out: IC50 IL-9)
67.8 µM | 67.8 µM | 2.74 µM | 2.74 µM | 1.02 µM | 1.02 µM | 11.6 µM | 11.6 µM | O=C(O)c1cc(NC(=O)c2cc(O)c(C(=O)O)cc2O)cc(NC(=O)c2cc(O)c(C(=O)O)cc2O)c1 [Ib-010a, 3,5-bis(2,5-dihydroxy-4-carboxybenzoylamino)benzoic acid] | – | – | – | – | – | – | – | –
1.56 µM | 1.56 µM | 24.2 µM | 24.2 µM | 0.19 µM | 0.19 µM | 11.1 µM | 11.1 µM | CC(=O)N(Cc1cc(O)c(C(=O)O)cc1O)Cc1cc(O)c(C(=O)O)cc1O [IIIc-057a, N,N-Bis(4-carboxy-2,5-dihydroxyphenylmethyl)acetamide] | – | – | – | – | – | – | – | –
> 100 µM | 100 µM | 10.4 µM | 10.4 µM | 0.99 µM | 0.99 µM | 2.9 µM | 2.9 µM | COC(=O)c1cc(OC(C)=O)cc(CS(=O)(=O)Cc2cc(OC(C)=O)cc(C(=O)OC)c2OC(C)=O)c1OC(C)=O [IVc-059a-E2-A4] | – | – | – | – | – | – | – | –
> 100 µM | 100 µM | 1.67 µM | 1.67 µM | 2.2 µM | 2.2 µM | 1.41 µM | 1.41 µM | O=C(O)c1ccccc1CNC(=O)c1cc(O)cc(C(=O)O)c1O [IIa-053a, 3-(2-Carboxyphenylmethylaminocarbonyl)-2,5-dihydroxybenzoic acid] | – | – | – | – | – | – | – | –
1.63 µM | 1.63 µM | 57.1 µM | 57.1 µM | 3.55 µM | 3.55 µM | 11.9 µM | 11.9 µM | O=C(O)Cc1cc(O)c(C(=O)Nc2c(C(=O)O)cccc2C(=O)O)cc1O [IIIa-013a, 2-(4-(carboxymethyl)-2,5-dihydroxybenzamido)isophthalic acid] | – | – | – | – | – | – | – | –
1.87 µM | 1.87 µM | 21.2 µM | 21.2 µM | 0.11 µM | 0.11 µM | 0.4 µM | 0.4 µM | O=C(O)c1cc(O)cc(CS(=O)(=O)Cc2cc(O)cc(C(=O)O)c2O)c1O [IVc-059a, 3-((2,5-Dihydroxy-3-carboxyphenyl)methylsulfonylmethyl)-2,5-dihydroxybenzoic acid] | – | – | – | – | – | – | – | –
6.38 µM | 6.38 µM | > 100 µM | 100 µM | 0.18 µM | 0.18 µM | 8.85 µM | 8.85 µM | O=C(O)c1cc(O)c(CN(Cc2cc(O)c(C(=O)O)cc2O)Cc2cc(O)c(C(=O)O)cc2O)cc1O [IIIc-061a, Tris(4-carboxy-2,5-dihydroxyphenylmethyl)amine] | – | – | – | – | – | – | – | –
57.2 µM | 57.2 µM | 7.08 µM | 7.08 µM | 0.77 µM | 0.77 µM | 1.47 µM | 1.47 µM | O=C(O)c1cc(NC(=O)c2cc(O)c(C(=O)O)cc2O)cc(C(=O)O)c1 [Ia-015a, 5-(4-carboxy-2,5-dihydroxybenzamido)isophthalic acid] | – | – | – | – | – | – | – | –
3.2 µM | 3.2 µM | 3.82 µM | 3.82 µM | 0.21 µM | 0.21 µM | 31.1 µM | 31.1 µM | O=C(O)c1cc(O)cc(CSCc2cc(O)cc(C(=O)O)c2O)c1O [IVc-058a, 3-((2,5-Dihydroxy-3-carboxyphenyl)methylthiomethyl)-2,5-dihydroxybenzoic acid] | – | – | – | – | – | – | – | –
> 100 µM | 100 µM | 12.8 µM | 12.8 µM | 0.95 µM | 0.95 µM | 46.9 µM | 46.9 µM | O=C(O)c1cc(O)c(C(=O)Nc2ccccc2S(=O)(=O)O)cc1O [Ia-001c, 2,5-dihydroxy-4-(2-sulfophenylaminocarbonyl)benzoic acid] | – | – | – | – | – | – | – | –
> 100 µM | 100 µM | 36.2 µM | 36.2 µM | 0.24 µM | 0.24 µM | 26.8 µM | 26.8 µM | CCOC(=O)c1cc(NC(=O)c2cc(O)c(C(=O)OCC)cc2O)cc(NC(=O)c2cc(O)c(C(=O)OCC)cc2O)c1 [Ib-010a-E3, ethyl 3,5-bis(2,5-dihydroxy-4-ethoxycarbonylbenzoylamino)benzoate] | – | – | – | – | – | – | – | –
